Where two headings read alike, the source gives them in different places.
System: Plasmodium falciparum 3D7
Test: SYBR Green assay, growth inhibition of Plasmodium falciparum cultured in vitro
Assay type: cell-based
Procedure: Plasmodium falciparum in the ring stage was synchronized. Smearing was carried out and the infection rate was counted. The synchronized parasitized red blood cells, healthy red blood cells and mediums were matched in a reasonable ratio, resulting in an in vitro culture system of plasmodia (ring bodies, 2 to 4 hours-old) with a hematocrit of 2% and an infection rate of 1%. […] A1-A10 was paved with 25 µl of drugs (with 8 complex wells for each drug) and mixed evenly, and then diluted in multiple proportions (Ax-Hx). Except for A12-H12, 50 µL of a plasmodium culture solution was spread in all the other wells; and A12-H12 was spread with 50 µl of healthy red blood cells (in the medium with a hematocrit of 2%). […] 100 µl of a lysis buffer was added to each of the wells and put into a drawer to avoid light for 1 h.
In this experiment, SYBR Green assay was used to determine the median inhibitory concentration (IC50) value of the drug for treating Plasmodium falciparum 3D7. Nonlinear regression was used to calculate the value by means of software graphpad prism 8.0 (the value was equal to average value plus or minus standard error), and a four-parameter logistic fitting curve was used. Each value in the curve was equal to average value plus or minus standard error in eight biological repetitive experiments.

[1] = Plasmodium falciparum standard strain 3D7, cultured for 72 h, read-out: IC50

Structure (SMILES)	IC50 [1] [nM]	further results
Cc1nc(C)c(COC(=O)CCCCCC(=O)OC2OC3OC4(C)CCC5C(C)CCC(C2C)C35OO4)nc1C [Compound Ia-5, (3R, 5aS, 6R, 9R, 10R, 12R, 12aR)-3,6,9-trimethyldecahydro-12h-3, 12-epoxy [1, 2] dioxopyran [4,3-i] isobenzopyran-10-yl ((3,5,6-trimethylpyrazine-2-yl)methyl) pimelate]	2.95	
Cc1nc(C)c(COC(=O)CC(=O)OC2OC3OC4(C)CCC5C(C)CCC(C2C)C35OO4)nc1C [Compound Ia-2, (3R, 5aS, 6R, 9R, 10R, 12R, 12aR)-3,6,9-trimethyldecahydro-12h-3, 12-epoxy [1, 2] dioxopyran [4,3-i] isobenzopyran-10-yl ((3,5,6-trimethylpyrazine-2-yl)methyl) malonate]	12.5	
Cc1nc(C)c(COC(=O)CCCCCCC(=O)OC2OC3OC4(C)CCC5C(C)CCC(C2C)C35OO4)nc1C [Compound Ia-7, (3R, 5aS, 6R, 9R, 10R, 12R, 12aR)-3,6,9-trimethyldecahydro-12h-3, 12-epoxy [1, 2] dioxopyran [4,3-i] isobenzopyran-10-yl ((3,5,6-trimethylpyrazine-2-yl)methyl) suberate]	50.7	
C[C@@H]1CC[C@H]2[C@@H](C)C(=O)O[C@@H]3O[C@@]4(C)CC[C@@H]1[C@]32OO4 [artemisinin, reference compound]		IC50 (Plasmodium falciparum, 3D7, standard antimalarial drug given for comparison, source of the value not stated, read-out: IC50): ~11.8 nM
Cc1nc(C)c(COC(=O)CCCC(=O)OC2OC3OC4(C)CCC5C(C)CCC(C2C)C35OO4)nc1C [Compound Ia-4, (3R, 5aS, 6R, 9R, 10R, 12R, 12aR)-3,6,9-trimethyldecahydro-12h-3, 12-epoxy [1, 2] dioxopyran [4,3-i] isobenzopyran-10-yl ((3,5,6-trimethylpyrazine-2-yl)methyl) glutarate]	33.9	
CCN(CC)CCCC(C)Nc1ccnc2cc(Cl)ccc12 (stereo not drawn) [chloroquine, reference compound]		IC50 (Plasmodium falciparum, 3D7): ~2.36 nM

Source: patent EP4810498A1, “MEDICATION FOR TREATING SEVERE MALARIA AND SYNTHESIS METHOD THEREFOR” (Institute of Chinese Materia Medica, China Academy of …, priority 2023, dated 2025)
